Measurements published in US20150105252A1, “SUBSTITUTED PYRAZOLES AS HERBICIDES” (E I DU PONT DE NEMOURS AND COMPANY, priority 2013, published 2015).

Columns and labels:
pigweed = assay: Test C preemergence; type: in vivo, Amaranthus retroflexus
Summary of the method: (§1)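 Pre- and postemergence greenhouse screen; vehicle was a non-phytotoxic solvent mix with surfactant. Preemergence: treatment applied right after sowing into loam and sand. Postemergence: treated at 1–4 leaves. Visual rating at 13–15 days, 100 = complete control.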

barnyardgrass [1] = assay: Test A preemergence; type: in vivo, Echinochloa crus-galli; conditions: 0 to 100 scale
Summary of the method: (§2)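 Visual injury rating, 0–100 (0 no effect, 100 complete control), vs untreated controls ~10 days after treatment in greenhouse. Pre: directed soil spray on seeded loam/sand. Post: 2–10 cm plants, 1–2 leaf stage. Formulation: non-phytotoxic solvent mix + surfactant.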

oat, wild = assay: Test C postemergence; type: in vivo, Avena fatua; conditions: for Oat, Wild plant response rating: scale 0 to 100; for Plant response rating (scale of 0 to 100), Oat, Wild: 16 g ai/ha
Summary of the method: as §1

johnsongrass = assay: Test C postemergence; type: in vivo, Sorghum halepense; conditions: for Johnsongrass plant response rating: scale 0 to 100; for Plant response rating (scale of 0 to 100), Johnsongrass: 16 g ai/ha
Summary of the method: as §1

ryegrass, Italian [2] = assay: Test C preemergence; type: in vivo, Lolium multiflorum
Summary of the method: as §1

corn = assay: Test A preemergence; type: in vivo, Zea mays; conditions: 0 to 100 scale
Summary of the method: as §2

barnyardgrass [3] = assay: Test A postemergence; type: in vivo, Echinochloa crus-galli; conditions: Postemergence
Summary of the method: as §2

sedge, umbrella = assay: Test B flood; type: in vivo, Cyperus difformis; conditions: 250 g ai/ha, visual rating on 0 to 100 scale (0 no effect, 100 complete control), 13 to 15 days
Summary of the method: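 Each compound is applied to the floodwater of pots holding 2-leaf seedlings, water standing 3 cm over the soil throughout. Plants stay in a greenhouse 13 to 15 days before visual scoring against controls from 0 (no effect) to 100 (complete control).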

velvetleaf = assay: Test A postemergence; type: in vivo, Abutilon theophrasti
Summary of the method: as §2

ryegrass, Italian [4] = assay: Test C postemergence; type: in vivo, Lolium multiflorum; conditions: for Ryegrass, Italian plant response rating / Plant response rating, Ryegrass, Italian: postemergence; for Ryegrass, Italian plant response rating: 62 g ai/ha, scale 0 to 100; for Plant response rating (scale of 0 to 100), Ryegrass, Italian: 16 g ai/ha
Summary of the method: as §1

wheat = assay: Test A postemergence; type: in vivo, Triticum aestivum
Summary of the method: as §2

soybean = assay: Test C preemergence; type: in vivo, Glycine max
Summary of the method: as §1

waterhemp = assay: Test C preemergence; type: in vivo, Amaranthus rudis
Summary of the method: as §1

[5] = preemergence, 31 g ai/ha, scale 0 to 100 (0 no effect, 100 complete control), 13 to 15 days
[6] = preemergence, 62 g ai/ha, 13 to 15 days, scale 0 to 100, 0 = no effect, 100 = complete control
[7] = preemergence, 125 g ai/ha, scale 0 to 100, 0 is no effect, 100 is complete control
[8] = Preemergence, 1000 g ai/ha, 0 no effect, 100 complete control
[9] = postemergence, 250 g ai/ha, scale 0 to 100 (0 no effect, 100 complete control)
[10] = postemergence, 125 g ai/ha, scale 0 to 100, 0 no effect, 100 complete control
[11] = Postemergence, 1000 g ai/ha, visual rating after approx. 10 days, 0 to 100 scale (0 no effect, 100 complete control)
[12] = 125 g ai/ha, scale 0 to 100, 0 no effect, 100 complete control
[13] = Preemergence, 16 g ai/ha, scale 0 to 100
[14] = Preemergence, 500 g ai/ha, 0 no effect, 100 complete control
[15] = preemergence, 125 g ai/ha, visual injury, approx. 10 days
[16] = 125 g ai/ha, 0 to 100 scale, 0 no effect, 100 complete control
[17] = 500 g ai/ha, visual rating after approx. 10 days, 0 to 100 scale (0 no effect, 100 complete control)
[18] = Postemergence, 500 g ai/ha, visual rating after approx. 10 days, 0 to 100 scale (0 no effect, 100 complete control)
[19] = postemergence, 125 g ai/ha, about 10 days, visual rating on 0 to 100 scale (0 no effect, 100 complete control)
[20] = Postemergence, 31 g ai/ha, visually evaluated after 13 to 15 days

Compound	Pigweed plant response rating (pigweed; [5])	Plant response rating, Pigweed (pigweed; [6])	Pigweed plant response rating (pigweed; [7])	Oat, Wild plant response rating (oat, wild; Postemergence, 31 g ai/ha)	Oat, Wild plant response rating (oat, wild; postemergence, 62 g ai/ha)	Plant response rating, Oat, Wild (oat, wild; [10])	Johnsongrass plant response rating (johnsongrass; Postemergence, 31 g ai/ha)	Johnsongrass plant response rating (johnsongrass; postemergence, 62 g ai/ha)	Plant response rating, Johnsongrass (johnsongrass; [10])	Plant response rating, Sedge, Umbrella (sedge, umbrella)	Ryegrass, Italian plant response rating (ryegrass, Italian [4])	Plant response rating, Ryegrass, Italian (ryegrass, Italian [4]; [12])	Soybean plant response rating (soybean; [5])	Plant response rating, Soybean (soybean; [6])	Soybean plant response rating (soybean; [7])	Plant response rating, Pigweed (pigweed; [13])	Barnyardgrass plant response rating (barnyardgrass [1]; [14])	Barnyardgrass plant response rating (barnyardgrass [1]; [15])	Plant response rating (scale of 0 to 100), Oat, Wild (oat, wild; Postemergence)	Plant response rating (scale of 0 to 100), Johnsongrass (johnsongrass; Postemergence)	also measured
Cc1cc(C(=O)NCC(F)(F)F)nn1Cc1ccnc(C(F)(F)F)c1 [Compound 74]	100	100	100	0	0	5	0	0	5	65	0	0	25	55	85						Plant response rating (scale of 0 to 100), Pigweed (pigweed; Preemergence, 250 g ai/ha): 100; Barnyardgrass plant response rating (barnyardgrass [1]; [8]): 100; Plant response rating, Oat, Wild (oat, wild; [9]): 5; Plant response rating, Johnsongrass (johnsongrass; [9]): 15; Plant response rating (scale of 0 to 100), Ryegrass, Italian (ryegrass, Italian [2]; Preemergence, 250 g ai/ha): 80; Ryegrass, Italian plant response rating (ryegrass, Italian [2]; [5]): 5; Plant response rating, Ryegrass, Italian (ryegrass, Italian [2]; [6]): 5; Ryegrass, Italian plant response rating (ryegrass, Italian [2]; [7]): 50; Corn plant response rating (corn; [8]): 90; Barnyardgrass plant response rating (barnyardgrass [3]; 1000 g ai/ha, visual rating after approx. 10 days, 0 to 100 scale (0 no effect, 100 complete control)): 90; Velvetleaf plant response rating (velvetleaf; [11]): 100; Plant response rating, Ryegrass, Italian (ryegrass, Italian [4]; 250 g ai/ha, scale 0 to 100 (0 no effect, 100 complete control)): 0; Wheat plant response rating (wheat; [11]): 90; Plant response rating (scale of 0 to 100), Soybean (soybean; Preemergence, 250 g ai/ha): 98
CCCNC(=O)c1cc(CC)n(Cc2ccnc(C(F)(F)F)c2)n1 [Compound 75]	100	100	100	5	5	25	10	10	10	85	5	10	85	98	98	85	100	100	5	10	Corn plant response rating (corn; [14]): 90; Corn plant response rating (corn; [15]): 80; Barnyardgrass plant response rating (barnyardgrass [3]; [16]): 90; Barnyardgrass plant response rating (barnyardgrass [3]; [17]): 90; Plant response rating, Waterhemp (waterhemp; [13]): 80; Waterhemp plant response rating (waterhemp; [5]): 100; Plant response rating, Waterhemp (waterhemp; [6]): 100; Waterhemp plant response rating (waterhemp; [7]): 100; Velvetleaf plant response rating (velvetleaf; [18]): 100; Velvetleaf plant response rating (velvetleaf; [19]): 90; Plant response rating (scale of 0 to 100), Ryegrass, Italian (ryegrass, Italian [4]; Postemergence): 5; Wheat plant response rating (wheat; [18]): 90; Wheat plant response rating (wheat; [19]): 80; Plant response rating, Soybean (soybean; [13]): 35
CCONC(=O)c1cc(CC)n(Cc2ccnc(C(F)(F)F)c2)n1 [Compound 77]	100	100	100		5	5		5	5	80	5	5	10	20	50	70	100	90	5	5	Plant response rating (scale of 0 to 100 where 0 is no effect and 100 is complete control), Oat, Wild (oat, wild; [20]): 5; Plant response rating (scale of 0 to 100 where 0 is no effect and 100 is complete control), Johnsongrass (johnsongrass; [20]): 5; Corn plant response rating (corn; [14]): 30; Corn plant response rating (corn; [15]): 10; Barnyardgrass plant response rating (barnyardgrass [3]; [16]): 50; Barnyardgrass plant response rating (barnyardgrass [3]; [17]): 100; Plant response rating, Waterhemp (waterhemp; [13]): 70; Waterhemp plant response rating (waterhemp; [5]): 98; Plant response rating, Waterhemp (waterhemp; [6]): 98; Waterhemp plant response rating (waterhemp; [7]): 100; Velvetleaf plant response rating (velvetleaf; [18]): 100; Velvetleaf plant response rating (velvetleaf; [19]): 80; Plant response rating (scale of 0 to 100), Ryegrass, Italian (ryegrass, Italian [4]; Postemergence): 0; Plant response rating (scale of 0 to 100 where 0 is no effect and 100 is complete control), Ryegrass, Italian (ryegrass, Italian [4]; [20]): 5; Wheat plant response rating (wheat; [18]): 50; Wheat plant response rating (wheat; [19]): 40; Plant response rating, Soybean (soybean; [13]): 0
